Legend:
[1] = tested on: soya bean plants; assay: Regulation of the growth of soya bean plants; conditions: controls = 100%
[2] = tested on: wheat; assay: Stimulation of root growth in wheat (plastic boxes, 30 days); type: in vivo; conditions: for root dry weight expressed as % of controls / root length expressed as % of controls: 30 days, controls = 100%
Protocol: (§1) Compounds of formula I are employed in the form of aqueous dispersions prepared from a 25% wettable powder. The test is carried out with seeds which are sown in plastic boxes measuring 5×35×60 cm and filled with soil (15 seeds per box). The seeds are treated before sowing at rates of application of 45-500 mg per kg of seeds. The boxes are kept under controlled conditions in a climatic chamber. After 30 days, the plants are carefully washed with water to remove the soil and the length and dry weight of the roots are assessed.

[3] = tested on: mould fungi; assay: Action against mould fungus on moist maize; type: in vivo, mixed population of mould fungi; conditions: for reduction of fungus attack compared with untreated controls: 0.06% a.i.
Description: Dry maize grains (portions of 80 g each) are thoroughly mixed in sealable plastic beakers with an aqueous suspension prepared from a 25% wettable powder formulation of a compound of formula I. The application is so adjusted as to give a concentration of 0.06% of active ingredient, based on the weight of dry maize. A moistened slip of paper provides for a saturated humid atmosphere in the beakers which are filled with maize and then sealed. A mixed population of mould fungi develops spontaneously after incubation for 2-3 weeks at about 20° C. in the maize samples which have been treated only with water. The effectiveness of the test compounds is assessed by evaluating the degree of fungus development after 3 weeks.
A visual assessment is made after each month according to the same criteria as specified above.

[4] = tested on: wheat; assay: Stimulation of root growth in wheat (plastic cylinders, 10 days); type: in vivo; conditions: seed treatment 4-130 mg per kg of seeds or soil spray 0.3 to 3 kg/ha; after 10 days
Protocol: Compounds of formula I are applied in the form of aqueous dispersions prepared from a 25% wettable powder. The test is carried out with seeds which are sown in plastic cylinders measuring 5×30 cm and filled with soil (10 seeds per cylinder). The seeds are (a) treated before sowing at rates of application of 4-130 mg per kg of seeds or (b) are untreated and the soil is sprayed with a dispersion of the active ingredient at rates of application of 0.3 to 3 kg/ha. The cylinders are kept under controlled conditions in a climatic chamber. After 10 days, the seedlings are carefully washed with water to remove the soil and the length and dry weight of the roots are assessed.

[5] = tested on: cotton; assay: Stimulation of root growth in cotton (plastic boxes, 30 days); type: in vivo; conditions: for root dry weight expressed as % of controls / root length expressed as % controls: 30 days, controls = 100%
Protocol: as §1

[6] = seed treatment 45-500 mg per kg of seeds, after 30 days

## O=[N+]([O-])c1ccc(Oc2ccc(C(F)(F)F)cn2)cc1P(=O)(O)O [Compound 3]
[1]; 0.08 kg a.i./ha
  Weight of pods as % of controls: 119 % of controls
  no. of pods as % of controls: 107 % of controls
[1]; 0.40 kg a.i./ha
  Weight of pods as % of controls: 119 % of controls
  no. of pods as % of controls: 119 % of controls
[1]; 0.80 kg a.i./ha
  Weight of pods as % of controls: 135 % of controls
  no. of pods as % of controls: 109 % of controls
[1]; 4.00 kg a.i./ha
  Weight of pods as % of controls: 108 % of controls
  no. of pods as % of controls: 98 % of controls
[2]; 45 mg a.i./kg of seeds
  root dry weight expressed as % of controls: 105 % of controls
  root length expressed as % of controls: 98 % of controls
[2]; 150 mg a.i./kg of seeds
  root dry weight expressed as % of controls: 112 % of controls
  root length expressed as % of controls: 107 % of controls
[2]; 500 mg a.i./kg of seeds
  root dry weight expressed as % of controls: 110 % of controls
  root length expressed as % of controls: 107 % of controls
[2]; [6]
  root growth stimulation effectiveness in words: every effective
[3]; after 3 weeks
  reduction of fungus attack compared with untreated controls: 80-95%
[3]; after 3 weeks and a further month
  reduction of fungus attack compared with untreated controls: 80-95%
[3]; after 3 weeks, a further month and yet a further month
  reduction of fungus attack compared with untreated controls: 50-80%
[3]; 0.06% of active ingredient on dry maize
  fungicidal activity in words: particularly pronounced fungicidal activity
[4]
  root growth stimulation effectiveness in words: very effective
[5]; 45 mg a.i./kg of seeds
  root dry weight expressed as % of controls: 105 % of controls
  root length expressed as % controls: 122 % controls
[5]; 150 mg a.i./kg of seeds
  root dry weight expressed as % of controls: 97 % of controls
  root length expressed as % controls: 111 % controls
[5]; 500 mg a.i./kg of seeds
  root dry weight expressed as % of controls: 129 % of controls
  root length expressed as % controls: 122 % controls
[5]; [6]
  root growth stimulation effectiveness in words: every effective
